Laboratory results reported in patent US11447445B2, “Diabetes and metabolic syndrome treatment with a novel dual modulator of soluble epoxide hydrolase and peroxisome proliferator-activated receptors” (priority 2015, dated 2022).
≈ marks a conversion by molar mass, not a printed value.

Tests used:
recombinant human sEH = biological target: T1, recombinant human sEH (Homo sapiens, UniProt P34913); assay: biochemical; details: read-out: IC50 sEH (converted)
T1 sequence (P34913 1-555): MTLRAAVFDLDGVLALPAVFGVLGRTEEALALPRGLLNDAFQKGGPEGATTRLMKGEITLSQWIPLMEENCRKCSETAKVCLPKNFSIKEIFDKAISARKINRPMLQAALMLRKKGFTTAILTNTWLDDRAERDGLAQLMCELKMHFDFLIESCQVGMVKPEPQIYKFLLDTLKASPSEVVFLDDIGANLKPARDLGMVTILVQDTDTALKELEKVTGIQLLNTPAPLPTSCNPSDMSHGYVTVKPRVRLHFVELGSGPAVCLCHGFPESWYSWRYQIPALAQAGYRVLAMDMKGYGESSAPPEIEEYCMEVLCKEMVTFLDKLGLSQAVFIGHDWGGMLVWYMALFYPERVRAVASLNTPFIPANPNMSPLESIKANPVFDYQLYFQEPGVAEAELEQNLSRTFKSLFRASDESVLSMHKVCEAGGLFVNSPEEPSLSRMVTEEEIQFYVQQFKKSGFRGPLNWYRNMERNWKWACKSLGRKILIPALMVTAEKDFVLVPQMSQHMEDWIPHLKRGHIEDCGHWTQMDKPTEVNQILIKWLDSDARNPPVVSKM

PPARα = biological target: T2, PPARα (Homo sapiens, UniProt Q07869); assay type: cell-based
T2 construct: expressed in transfected cells; host or cells: COS-7
T2 sequence (Q07869 239-466): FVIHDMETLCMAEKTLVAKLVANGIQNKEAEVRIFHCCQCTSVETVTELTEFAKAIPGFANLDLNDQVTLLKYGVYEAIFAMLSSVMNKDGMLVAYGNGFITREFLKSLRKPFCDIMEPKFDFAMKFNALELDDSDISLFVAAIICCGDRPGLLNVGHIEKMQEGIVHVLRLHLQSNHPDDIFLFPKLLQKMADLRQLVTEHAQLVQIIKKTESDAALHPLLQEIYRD

PPARδ = biological target: T3, PPARδ (Homo sapiens, UniProt Q03181); assay: PPAR transactivation assay in COS-7 cells (Gal4-hPPAR-LBD, luciferase); assay type: cell-based; details: i.a. = inactive
T3 construct: expressed in transfected cells; host or cells: COS-7
T3 sequence (Q03181 211-439): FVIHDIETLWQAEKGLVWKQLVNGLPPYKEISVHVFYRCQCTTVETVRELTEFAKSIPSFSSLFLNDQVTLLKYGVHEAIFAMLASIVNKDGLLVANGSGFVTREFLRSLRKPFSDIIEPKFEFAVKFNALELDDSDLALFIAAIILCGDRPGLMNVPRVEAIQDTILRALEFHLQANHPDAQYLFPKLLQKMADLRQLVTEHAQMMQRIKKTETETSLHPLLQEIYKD

[1] = Water solubility approximation; assay type: physicochemical; details: aqueous with cosolvent or surfactant or cyclodextrin, kinetic from dmso stock; PBS pH 7.4, 0.01% Polysorbate 20, 1% DMSO; precipitation at 650 nm; read-out: w.s. (water solubility)
Protocol: PBS at pH 7.4 with 0.01% Polysorbate 20 (Tween) was combined with 1% of a DMSO solution of the inquired compound in a 96-well transparent flat bottom microtiter plate. Precipitation of the compound was measured at 650 nm with a Tecan Infinite 200 (Tecan Group Ltd, Mannedorf, Switzerland).

HepG2 cells = assay: WST-1 cytotoxicity assay; assay type: cell-based; details: up to a concentration of 30 μM; 48 hours
Protocol: The WST-1 assay (Roche Diagnostic GmbH, Mannheim, Germany) was used to determine the cell viability after treatment with the compounds. For this purpose, Hela and HepG2 cells were seeded each in 96-well plates at a density of 1×10^4 per well in DMEM with Phenolred and in presence of 10% FCS. After 24 hours the medium was changed. Fresh DMEM with 10% FCS was added and the cells were treated with the compounds for 48 hours. Cell viability was assessed according to the manufacturer's protocol using a microplate reader (infinity M200, Tecan Group Ltd., Crailsheim, Germany). All experiments were performed at least in triplicate.

[2] = In vitro drug metabolism in rat liver microsomes; assay type: in vitro ADME; details: 10 μM, 1 h incubation
Protocol: The incubation was performed in a shaking water bath at 37° C. The reaction was stopped by the addition of 500 μl ice-cold methanol at 0, 15, 30 and 60 min. The samples were centrifuged at 10 000 g for 5 min at 4° C. The supernatants were analysed and quantified by HPLC. Control samples were always performed to check the stability of the compounds in the reaction mixture. First control was without NADPH, which is needed for the enzymatic activity of the microsomes. Second control was with inactivated microsomes (microsomes that were incubated for 20 min at 90° C.). Third control was without test compounds (to determine the baseline). As positive control, a solution of 7-ethoxycoumarin (1 mM) was used. The final concentration of the control compound, under assay conditions, was again 10 μM. The amounts of the test compounds were quantified by an external calibration curve.

3T3-L1 fibroblasts = assay: Adipocyte differentiation of murine 3T3-L1 cells (Oil Red O staining); assay type: cell-based; details: 1c 1-10 μM; CIU 10 μM
Protocol: 3T3-L1 cells were subcultured in DMEM containing 10% newborn calf serum in a humidified atmosphere at 37° C., 5% CO2. […] Briefly, cells were seeded in 6-well plates (2.5×10^6/well). Differentiation was started at day 3 by addition of 1 μg/ml insulin, 0.25 dexamethasone and 0.5 mM isobutylmethylxanthine in DMEM supplemented with 10% fetal calf serum. At day 5 medium was replaced by medium containing only insulin for 2 more days. After this, cells were kept for lipid droplet accumulation in basal medium without additions until day 15.

[3] = test system: human primary preadipocytes; assay: Adipocyte differentiation of human primary preadipocytes (Oil Red O staining); assay type: cell-based; details: 1c 1-10 μM; CIU 10 μM
Protocol: (§1) Human primary preadipocytes were obtained from stromal vascular fraction of subcutaneous fat from anonymous donors undergoing elective cosmetic surgery. Adipose tissue was digested by collagenase solution (0.3 U/ml in 1% BSA/PBS) for 45 min at 37° C. with constant shaking. Floating mature adipocytes were removed and the pellet containing the stromal vascular fraction was resuspended in erythrocyte lysis buffer. […] After 4 days the medium was changed to 3FC medium (QuickDiff medium without dexamethasone, IBMX and rosiglitazone). Adipocytes were cultured for additional 14 days before medium was changed to basal medium consisting of DMEM/Ham's F12 with biotin and panthotenate. This investigation conforms to the ethical principles outlined in the Declaration of Helsinki and was approved by the university ethics committee (Ethik-Kommission des Fachbereichs Medizin der Goethe-Universitat Frankfurt am Main). Total RNA was isolated using PeqGold RNAPure (Peqlab) according to manufacturer's instructions and was transcribed to cDNA using Maxima First Strand cDNA synthesis kit (Thermo Scientific), following manufacturer's instructions. Quantitative PCR was performed with iQ SYBR green Supermix (Bio-Rad) using a CFX96 (Bio-Rad) system. Expression was normalized to actin RNA.

[4] = test system: PPARγ target genes (GLUT4, Adiponectin, FABP4, LPL); assay: qPCR of PPARγ target genes in differentiated 3T3-L1 cells; assay type: cell-based, murine; details: 1-10 μM; compared to rosiglitazone 2 μM
Protocol: 3T3-L1 cells were subcultured in DMEM containing 10% newborn calf serum in a humidified atmosphere at 37° C., 5% CO2. […] Briefly, cells were seeded in 6-well plates (2.5×10^6/well). Differentiation was started at day 3 by addition of 1 μg/ml insulin, 0.25 dexamethasone and 0.5 mM isobutylmethylxanthine in DMEM supplemented with 10% fetal calf serum. At day 5 medium was replaced by medium containing only insulin for 2 more days. After this, cells were kept for lipid droplet accumulation in basal medium without additions until day 15. […] Differentiation of 3T3-L1 cells was confirmed by Oil Red 0 staining. Cells were washed with PBS and subsequently fixed for 60 minutes with a formaldehyde solution (4% in PBS). After this, cells were rinsed with 60% isopropanol and incubated with Oil Red 0 solution (0.3%) for 120 minutes.
3T3-L1 cells or homogenized mouse tissues were lysed using TRIzol® reagent (Ambion, life technologies, Carlsbad, USA) and mRNA was isolated following the manufacturers protocol. DNA contaminations were digested using DNAse (DNase I, RNase-free Kit; Thermo Scientific, Waltham, USA) and mRNA concentrations were measured with a NANODROP2000 spectrophotometer (Thermo Scientific, Waltham, USA). […] All samples were measured in triplicates and were analyzed using the ΔΔCT method.

[5] = test system: PPARγ target genes (GLUT4, Adiponectin, FABP4, LPL); assay: qPCR of PPARγ target genes in human primary adipocytes; assay type: cell-based
Protocol: as §1

PPARγ target gene CD36 = assay: CD36 expression in mouse liver (qPCR); assay type: in vivo; details: single p.o. 30 mg/kg bw, 8 h; compared to non-treated mice
Protocol: 3T3-L1 cells or homogenized mouse tissues were lysed using TRIzol® reagent (Ambion, life technologies, Carlsbad, USA) and mRNA was isolated following the manufacturers protocol. DNA contaminations were digested using DNAse (DNase I, RNase-free Kit; Thermo Scientific, Waltham, USA) and mRNA concentrations were measured with a NANODROP2000 spectrophotometer (Thermo Scientific, Waltham, USA). Subsequently, reverse transcription was performed using the High Capacity RNA-to-cDNA Kit (Applied Biosystems, Foster City, USA). PCR was performed using specific primers for GLUT-4, FABP-4, LPL, adiponectin and CD36 (shown under supporting informations) with a StepOnePlus Real-Time PCR System (Applied Biosystems, Foster City, USA). NoNo (3T3-L1) and β-Actin (mouse tissue) were used as reference genes. All samples were measured in triplicates and were analyzed using the ΔΔCT method.

hFFA1 = biological target: T4, hFFA1 (Homo sapiens, UniProt O14842); assay: IP1 accumulation in HEK293 cells stably expressing hFFA1; assay type: cell-based; details: read-out: pEC50 (IP1 accumulation) (converted)
T4 construct: expressed in transfected cells; host or cells: Flp-In T-REx 293 (HEK293), doxycycline-induced
T4 sequence (O14842 whole entry): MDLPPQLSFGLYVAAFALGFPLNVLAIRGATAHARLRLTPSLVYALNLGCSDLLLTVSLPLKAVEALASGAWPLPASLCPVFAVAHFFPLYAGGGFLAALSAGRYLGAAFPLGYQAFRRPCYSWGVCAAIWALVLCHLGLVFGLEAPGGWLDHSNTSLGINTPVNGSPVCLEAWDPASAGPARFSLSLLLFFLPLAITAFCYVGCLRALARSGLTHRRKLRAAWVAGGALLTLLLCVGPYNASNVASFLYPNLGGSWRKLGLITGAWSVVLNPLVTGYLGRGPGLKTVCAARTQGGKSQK
Protocol: (§2) Stably transfected Flp-In™ T-REx™ 293 cells (Invitrogen) were cultured in Dulbecco's modified Eagles's medium (DMEM) containing 10% (v/v) fetal bovine serum (FBS), penicillin (100 U/mL), streptomycin ([…]), Hygromycin B (100 μg/mL) and Blasticidin (15 μg/mL) at 37° C. and 5% CO2. All experiments were carried out after inducing receptor expression with 1 μg/mL doxycycline for approximately 18 hours, according to manufacturer's instructions (Invitrogen).
(§3) Compound activity on the Gq coupled FFA1 receptor constructs was assessed by measuring intracellular level of inositolmonophosphate (IPI) using the HTRF®-IP-One kit (Cisbio International) according to manufacturer's instructions. Briefly, 10,000 receptor expressing cells were seeded into a 384 well microplate and incubated 20 minutes at 37° C. […] Data analysis and nonlinear regression curve fitting were carried out using the GraphPad Prism® software v5.04 (Graphpad Software).

mFFA1 = biological target: T5, mFFA1 (Mus musculus, UniProt Q76JU9); assay: IP1 accumulation in HEK293 cells stably expressing mFFA1; assay type: cell-based; details: read-out: pEC50 (IP1 accumulation) (converted)
T5 construct: expressed in transfected cells; host or cells: Flp-In T-REx 293 (HEK293), doxycycline-induced
T5 sequence (Q76JU9 whole entry): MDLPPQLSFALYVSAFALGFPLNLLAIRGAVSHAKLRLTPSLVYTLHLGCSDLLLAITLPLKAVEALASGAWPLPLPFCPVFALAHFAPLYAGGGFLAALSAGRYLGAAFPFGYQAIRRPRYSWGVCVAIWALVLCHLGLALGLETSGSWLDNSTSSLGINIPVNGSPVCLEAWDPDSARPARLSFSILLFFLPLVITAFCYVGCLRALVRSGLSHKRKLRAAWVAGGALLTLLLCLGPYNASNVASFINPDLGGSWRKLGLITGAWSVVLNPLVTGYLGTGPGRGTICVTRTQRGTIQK
Protocol: as §2, §3

[6] = after p.o. 30 mg/kg bw of 1c
Protocol: Blood was sampled 15 min, 30 min, 1 h, 2 h, 4 h and 8 h after test item application and only 8 h after vehicle application. Each drug treated mouse was sampled twice (0.25 and 0.5 h, 1 and 2 h, 4 and 8 h) via retro orbital puncture. Blood was collected in tubes containing lithium-heparin, stored on ice and subsequently centrifuged at 6000 rpm for 10 minutes at 4° C. (Heraeus biofuge fresco). The plasma was prepared within 45 min after sampling and kept at −20° C. until being assayed. For further kinetic and dynamic analysis the tissues (brain, liver, abdominal fat) were collected 30 min, 2h and 8 h post dose, after the second plasma sampling of each drug treated mouse. Tissue of the vehicle group was sampled only once, 8 h post dose. A volume of 40 μl acetonitrile containing the internal standard (300 ng/ml Diazepam) was added to 20 μl of mouse plasma sample, plasma calibration standard and plasma QC samples. Samples were vigorously shaken and centrifuged for 10 minutes at 6000 g and 20° C. The particle free supernatant was diluted 1:1 with water. An aliquot was transferred to 200 μl sampler vials and subsequently subjected to LC MS with an injection volume of 20 pl. The brain samples were homogenized in PBS (1+1, w/v) using the Precellys 24/Dual homogenizer. A volume of 20 μl of the brain homogenate was mixed (1+1 v/v/) with 20 μl mouse blank plasma. Then 80 μl acetonitrile containing the internal standard (300 ng/ml Diazepam) were added. Samples were vigorously shaken and centrifuged for 10 minutes at 6000 g and 20° C. The particle free supernatant was diluted 1:1 with water. An aliquot was transferred to 200 μl sampler vials and subsequently subjected to LC MS with an injection volume of 20 μl. Mass spectrometry was performed on a TSQ Quantum Discovery Max triple quadrupole mass spectrometer equipped with an electrospray (ESI) interface (Thermo Fisher Scientific, USA) connected to a PC running the standard software Xcalibur 2.0.7. […]

SHROB rats = test system: SHROB rats
Protocol: SHROB were treated with RB394 (10 mg/kg/d, p.o.; […]) for 8-weeks.
Metabolic syndrome (MetS) is a cluster of symptoms including hypertension, hyperglycemia, hypertriglyceridemia and obesity. […] The inventors hypothesized that the development of a dual modulator (a drug that combines two pharmacophores) could treat more than one symptom of MetS and prevent renal injury. […] The inventors synthesized a novel dual sEH inhibitor-PPAR-γ agonist (sEHi/PPAR-γ), RB394 and investigated its efficacy in a rat model of MetS (see FIG. 21). Three groups of rats were utilized; Group 1: Wister Kyoto (WKY)+Vehicle (n=6); Group 2: Spontaneously Hypertensive Obese (SHROB)+Vehicle (n=5); Group 3: SHROB+RB394 (10 mg/kg/d p.o.; n=5). RB394 or vehicle treatments were administered for 56 days, blood pressure measured, and urine and kidney tissues collected at the end of treatment period. […] Kidney injury was assessed from albuminuria, and also from histopathological analysis of renal tubular cast formation, collagen formation and glomerular injury using Periodic Acid Schiff and Picro Sirius Red staining.
The Medical College of Wisconsin Institutional Animal Care and Use Committee according to the National Institutes of Health Guidelines for Care and Use of Laboratory Animals approved all animal studies. Eight to nine-week-old male Wistar-Kyoto (WKY), and SHROB were purchased from Charles River Laboratories (Wilmington, Mass., USA). Animals were housed in the Biomedical Resource Center at Medical College of Wisconsin with a 12 hour light-dark cycle and free access to tap water along with rat chow. WKY rats (n=6) were used as a control group as a comparison for disease progression. SHROB rats were divided into 2 groups. Group 1 received vehicle (n=5) and Group 2 received RB394 (10 mg/kg/d p.o.; n=5) for 8 weeks. Rats were weighed and systolic blood pressure was measured by tail-cuff plethysmography.
Intra-peritoneal glucose tolerance test was carried out during the 8-week treatment protocol in rats that were fasted overnight and injected with glucose (2 g/kg i.p.). Blood samples were collected from the tail vein before and at different time points after glucose injection. The tail vein blood glucose levels were measured using a glucometer LifeScan (Miltipas, Calif., USA).
Urinary biochemical analysis was done using commercially available ELISA kits; albumin and from Exocell (Philadelphia, Pa.). Rats were anesthetized using isoflorane and plasma collected from the artery. Triglyceride, cholesterol, protein and creatinine assay kits were from Cayman (Ann Arbor, Mich., USA), and free fatty acids from Zen-Bio Inc. (Research Triangle Park, N.C.). Blood glucose levels from the tail vein were measured using a glucometer.
The kidney was excised and immersion-fixed in 10% neutral buffered formalin and paraffin embedded. The embedded kidney and pancreas sections were cut into 4 μm slices for use in histology. Formalin-fixed paraffin-embedded tissue slices were deparaffinized, re-hydrated, and kidney tissue slices were stained with Periodic Acid-Schiff (PAS) and Masson's Trichorme. Glomerulosclerosis and mesangial matrix expansion were blindly scored from kidney sections stained with PAS staining using the following numeric scale: 0=no damage; +1=very mild; +2=mild; +3=moderate and +4=severe. Two observers in a blinded fashion conducted histological analysis at a magnification of ×200 using Nikon NIS Elements Software (Nikon Instruments Inc., Melville, N.Y., USA). Proteinaceous cast in the kidney was also determined in PAS stained kidney sections at magnification of ×200 using Nikon NIS Elements Software. The percentage area positive for proteinaceous cast was calculated from the mean of eight cortical and five medullary fields for each animal. Fibrosis in the kidney was determined in kidney sections stained with Masson's Trichorme at a magnification of ×200.

[7] = SHROB + RB394 10 mg/kg/d p.o., 8 weeks
[8] = SHROB + RB394 10 mg/kg/d p.o., 56 days

## CCC(Cc1ccc(C(=O)NCc2ccccc2C(F)(F)F)cc1)C(=O)O (stereo not shown) [Compound 1c, 2-Ethyl 3-[4-(N-((2-trifluoromethyl)benzyl)benzamide)]propionic acid]
Recombinant human sEH
  IC50: 1.6 ± 0.2 µM
PPARα; i.a. = inactive
  EC50 PPARα: i.a.
PPARδ
  EC50 PPARδ: i.a.
[1]
  solubility: 100 µM (≈ 37.9 µg/mL)
HepG2 cells
  cell viability of HepG2 cells (WST-1): did not impair cell viability
[2]
  compound remaining intact after 1 h: 92%
3T3-L1 fibroblasts
  adipocyte differentiation (Oil-Red O): dose-dependent effect
[3]
  adipocyte differentiation (Oil-Red O): dose dependent (1-10 μM) effect
[4]
  expression of PPARγ target genes (GLUT4, Adiponectin, FABP4, LPL): dose-dependently activated expression of all target genes analysed
[5]; 1c 10 μM
  upregulation of GLUT4 expression: comparable to the rosiglitazone (2 μM) control
[5]; 1c stimulation
  upregulation of Adiponectin, FABP4 and LPL: only minor effects
PPARγ target gene CD36
  increase of CD36 expression in liver: at least 2 fold
hFFA1
  EC50: 8.32 µM
mFFA1
  EC50: 4.9 µM
[6]
  AUC0→∞: 15847 ng·h/mL
  tmax: 30 min

## CCC(Cc1ccc(C(=O)NCc2ccc(OC)cc2C(F)(F)F)cc1)C(=O)O (stereo not shown) [Compound 14c, 2-Ethyl 3-14-(N-(4-methoxy(2-trifluoromethyl)benzyl)benzamide)1 propionic acid]
PPARα; at 10 μM, compared to GW7647 1 μM
  PPARα activation @10 μM: 29%
PPARδ
  EC50 PPARδ: n.t. i.a. i.a. n.t.
[1]
  solubility: 500 µM (≈ 205 µg/mL)
HepG2 cells
  cell viability of HepG2 cells (WST-1): did not impair cell viability
[2]
  compound remaining intact after 1 h: 96%
hFFA1
  EC50: 14.1 µM
mFFA1
  EC50: 23.4 µM
SHROB rats; 8 weeks
  body weight gained more than vehicle treated SHROB: approximately 40 g
  systolic blood pressure lower than vehicle treated SHROB: approximately 44 mmHg
SHROB rats; [7]
  Body Weight: 600 ± 8 g
  Fasting Blood Glucose: 83 ± 7 mg/dL
  Free fatty Acid: ^#322 ± 24 μM
  Serum Cholesterol: #4.0 ± 0.7 mM
  Triglyceride: ^#133 ± 18 mg/DL
SHROB rats; [8]
  albuminuria: 59 ± 11 mg/day
  reduction of glomerular injury: 45%
  reduction of renal cast and collagen formation: 40-50%
  reduction of renal inflammation (infiltrating immune cells in the kidney): 20%
